This test deals with L929 cells. Description: Inhibition of TNF-α mediated cytolysis of L929 cells (Alamar Blue). Format: cell-based, murine. Conditions: TNF-α 100 pg/mL, actinomycin D 1 μM; for % Inhibition at: 25 μM: 25 μM compound; for % Inhibition at: 50 μM: 50 μM compound; for % Inhibition at: 100μM: 100 μM compound. The text has this:
L929 cultured murine fibroblasts cells were obtained from American Type Culture Collection (Manassas, Va.). Tissue culture reagents were from Invitrogen or Sigma-Aldrich. TNF-α and Actinomycin D were from Sigma-Aldrich. Alamar Blue reagents (Cell Titer Blue™) were from Promega. The test compounds I-1 through I-16, II-1 through II-8, and III-1 through III-3 were obtained commercially or can be prepared as described above. The test compounds were individually dissolved in dimethylsulfoxide (DMSO). The test compounds were maintained at 4° C. when not in use. Other reagents were high-purity (ACS-grade, HPLC-grade, MilliQ water, or similar).
Stock L929 cells were grown on tissue culture plastic in complete DMEM (Dulbecco's Modified Eagles Medium) supplemented with 10% FBS (Fetal Bovine Serum), NEAA (non-essential amino acids), and glutamine. L929 cells were plated using the same medium on 96-well tissue culture plates at high density (i.e., ˜4×10^4 cells/well, or similar) before use.
Approximately 20 h after plating, the L929 cells on 96-well plates were re-fed with fresh medium containing one of the test compounds in a concentration selected from 100 μM, 50 μM, 25 μM as a “pre-treatment.” Approximately 30-60 min later, samples were treated with an additional amount of test compound (in the same amount and at the same concentration as the pre-treatment) prepared in medium containing TNF-α (200 pg/mL), and actinomycin D (2 μM). The final concentration of TNF-α in assays was 100 pg/mL. The final concentration of actinomycin D in assays was 1 μM. The plates were incubated for an additional 22-23 h, the Alamar Blue assay reagents were added and metabolic cell viability was determined from reduction of a fluorogenic Alamar Blue derivative.
The temperature was maintained at 37° C. with 5% CO2 and humidified. The metabolic viability was measured 1-2 h after addition of assay reagents/Alamar Blue derivative using TECAN SaFire fluorescence plate reader (Tecan Group Ltd., Maennedorf, Switzerland).
Inhibition of TNF-α induced cytolysis by a test compound (X) at a given concentration (y) was calculated as follows: […]
For orientation: The colour change of resazurin is a common sign of viable cells or microbes.

Structures are written as SMILES.

As for `CN(C)c1ccc(C(O)(c2ccc(N(C)C)cc2)c2ccc(N(C)C)cc2)cc1` [Compound I-1, 1,1,1-Tris-(4-dimethylaminophenyl)methanol], the “% Inhibition at: 25 μM” value came out at 44.0%, the “% Inhibition at: 50 μM” value is 63.3% and the “% Inhibition at: 100μM” value was found to be 40.9%.
On the same counts, the results for `CC(c1ccc(OCC(=O)[O-])cc1)(c1ccc(OCC(=O)[O-])cc1)c1ccc(OCC(=O)[O-])cc1.[Na+].[Na+].[Na+]` [Compound I-3, 1,1,1-Tris-(4-carboxymethoxyphenyl)ethane, trisodium salt] are 23.0%, 17.7% and 12.4%.
On to `COC(=O)COc1ccc(C(C)(c2ccc(OCC(=O)OC)cc2)c2ccc(OCC(=O)OC)cc2)cc1` [Compound I-4, 1,1,1-Tris-(4-methoxycarbonylmethoxyphenyl)ethane], for which the “% Inhibition at: 25 μM” value is listed as 18.4%, the “% Inhibition at: 50 μM” value was 27.9% and the “% Inhibition at: 100μM” value is on record as −11.6%.
As for `COc1ccc(C(C(=O)[O-])(c2ccc(OC)cc2)c2ccc(OC)cc2)cc1.[Na+]` [Compound I-5, Sodium 1,1,1-tris-(4-methoxyphenyl)acetate], the “% Inhibition at: 25 μM” value came out at 1.7%, the “% Inhibition at: 50 μM” value turned out to be 5.0% and the “% Inhibition at: 100μM” value is listed as 12.1%.
On the same counts, the results for `COc1ccc(C(O)(c2ccc(OC)cc2)c2ccc(OC)cc2)cc1` [Compound I-6, 1,1,1-Tris-(4-methoxyphenyl)methanol] are 12.0%, 25.9% and 32.5%.
In the case of `COc1ccc([C+](c2ccc(OC)cc2)c2ccc(OC)cc2)cc1` [Compound I-7, 4,4′,4″-Trimethoxytrityl tetrafluoroborate], the “% Inhibition at: 25 μM” value was 15.1%, the “% Inhibition at: 50 μM” value was 30.2% and the “% Inhibition at: 100μM” value amounted to 25.9%.
On the same counts, the results for `COc1ccc(C(C(=O)O)(c2ccc(OC)cc2)c2ccc(OC)cc2)cc1` [Compound I-8, 1,1,1-Tris-(4-methoxyphenyl)acetic acid] are 2.7%, 6.9% and 18.4%.
Regarding `CC(=O)Oc1ccc(C(C)(c2ccccc2)c2ccc(OC(C)=O)cc2)cc1` [Compound I-10, 1,1-Bis-(4-acetoxyphenyl)-1-phenyl-ethane], the “% Inhibition at: 25 μM” value turned out to be 20.7%, the “% Inhibition at: 50 μM” value came to 46.6% and the “% Inhibition at: 100μM” value is reported as 71.9%.
On the same counts, the results for `COC(=O)COc1ccc(C(C)(c2ccc(O)cc2)c2ccc(O)cc2)cc1` [Compound I-11, 1,1-Bis-(4-hydroxyphenyl)-1-(4-methoxycarbonylmethoxyphenyl)ethane] are 13.9%, 36.7% and 14.8%.
On the same counts, the results for `CC(c1ccc(O)cc1)(c1ccc(OCC(=O)O)cc1)c1ccc(OCC(=O)O)cc1.[Na+].[Na+].[Na+]` [Compound I-12, 1,1-Bis-(4-carboxymethoxy-phenyl)-1-(4-hydroxyphenyl)ethane, trisodium salt] are 14.5%, 16.9% and 14.2%.
For `CC(c1ccc(OC(=O)CCl)cc1)(c1ccc(OC(=O)CCl)cc1)c1ccc(OC(=O)CCl)cc1` [Compound I-13, 1,1,1-Tris-(4-chloroacetoxyphenyl)ethane], the “% Inhibition at: 25 μM” value is on record as 35.4%, the “% Inhibition at: 50 μM” value was determined as 72.2% and the “% Inhibition at: 100μM” value is on record as 38.9%.
`COC(=O)COc1ccc(C(C)(c2ccc(OCC(=O)OC)cc2)c2ccc(OC(C)=O)cc2)cc1` [Compound I-14, 1-(4-Acetoxy-phenyl)-1,1-bis-(4-methoxycarbonylmethoxyphenyl)ethane]: the “% Inhibition at: 25 μM” value stood at 13.4%, the “% Inhibition at: 50 μM” value turned out to be 30.2% and the “% Inhibition at: 100μM” value is listed as 45.3%.
On the same counts, the results for `CC(c1ccccc1)(c1ccc(OC(=O)CCl)cc1)c1ccc(OC(=O)CCl)cc1` [Compound I-15, 1,1-Bis-(4-chloroacetoxyphenyl)-1-phenylethane] are 29.7%, 73.8% and −19.8%.
On the same counts, the results for `CC(=O)Oc1ccc(C2(c3ccc(OC(C)=O)cc3)C(=O)Nc3ccccc32)cc1` [Compound I-16, 3,3-Bis[4-(acetyloxy)phenyl]-1,3-dihydro-2H-indol-2-one] are 4.3%, 11.5% and 17.1%.
On the same counts, the results for `CN(C)c1ccc(C(O)(c2ccccc2)c2ccc(N(C)C)cc2)cc1` [Compound I-17, 1,1-Bis(4-dimethylaminophenyl)-1-phenyl-methanol] are −16.0%, −17.0% and −17.9%.
With `Cc1cc(C(C)(c2ccc(O)cc2)c2cc(C)c(N)c(C)c2)cc(C)c1N` [Compound I-18, 1,1-Bis(4-amino-3,5-dimethylphenyl)-1-(4-hydroxyphenyl)-ethane], the “% Inhibition at: 25 μM” value is 22.6%, the “% Inhibition at: 50 μM” value was 36.6% and the “% Inhibition at: 100μM” value worked out at 53.8%.
On to `O=C1OC2(c3ccc(Cl)cc3Oc3cc(Cl)ccc32)c2ccccc21` [II-1, 3′,6′-Dichlorofluorescein], for which the “% Inhibition at: 25 μM” value is recorded as 20.7%, the “% Inhibition at: 50 μM” value stood at 8.8% and the “% Inhibition at: 100μM” value is 7.6%.
With `CC(=O)Oc1ccc2c(c1)Oc1cc(OC(C)=O)ccc1C21OC(=O)c2ccccc21` [II-2, 3′,6′-Fluorescein diacetate], the “% Inhibition at: 25 μM” value stood at 25.4%, the “% Inhibition at: 50 μM” value is 23.5% and the “% Inhibition at: 100μM” value is 26.0%.
On the same counts, the results for `O=C(O)c1ccccc1C1c2ccc(Cl)cc2Oc2cc(Cl)ccc21` [II-3, 2-(3,6-Dichloro-9H-xanthen-9-yl)-benzoic acid] are 36.2%, 45.6% and 52.4%.
`O=C(O)c1ccccc1C1c2ccc(O)cc2Oc2cc(O)ccc21` [II-4, 2-(3,6-Dihydroxy-9H-xanthen-9-yl)-benzoic acid]: the “% Inhibition at: 25 μM” value was 33.3%, the “% Inhibition at: 50 μM” value was 23.6% and the “% Inhibition at: 100μM” value was determined as 23.2%.
Consider `O=C(O)c1ccccc1C1c2ccc(O)cc2Oc2cc(O)ccc21` [II-5, 2-Hydroxy-1,1-bis-hydroxymethyl-ethyl-ammonium; 2-(3,6-dihydroxy-9H-xanthen-9-yl)-benzoate], for which the “% Inhibition at: 25 μM” value is on record as 25.1%, the “% Inhibition at: 50 μM” value was found to be 16.3% and the “% Inhibition at: 100μM” value is reported as 21.5%.
On the same counts, the results for `NC(=O)c1ccccc1C1c2ccc(Cl)cc2Oc2cc(Cl)ccc21` [II-6, 2-(3,6-Dichloro-9H-xanthen-9-yl)-benzamide] are 43.3%, −6.1% and −21.7%.
Take `O=C([O-])c1ccccc1C(c1ccc(O)cc1)c1ccc(O)cc1.[K+]` [II-7, Potassium 2-[bis-(4-hydroxyphenyl)-methyl]-benzoate]: the “% Inhibition at: 25 μM” value turned out to be 22.5%, the “% Inhibition at: 50 μM” value is 19.1% and the “% Inhibition at: 100μM” value is 13.2%.
On the same counts, the results for `O=C([O-])c1ccccc1C1c2ccc(O)cc2Oc2cc(O)ccc21.[K+]` [II-8, Potassium 2-(3,6-dihydroxy-9H-xanthen-9-yl)-benzoate] are 23.6%, 24.7% and 25.6%.
On to `CC(=O)Oc1cc2c(cc1Cl)C1(OC(=O)c3ccccc31)c1cc(Cl)c(OC(C)=O)cc1O2` [II-9, 2′,7′-Dichlorofluorescein diacetate], for which the “% Inhibition at: 25 μM” value was determined as 6.3%, the “% Inhibition at: 50 μM” value worked out at 10.5% and the “% Inhibition at: 100μM” value stood at 22.0%.
Turning to `O=[N+]([O-])c1cccc(NN=C(c2ccc(O)cc2)c2ccc(O)cc2)c1` [III-1, N-(4,4′-Dihydroxybenzhydrylidene)-N′-(3-nitrophenyl)hydrazine], the “% Inhibition at: 25 μM” value came to 33.2%, the “% Inhibition at: 50 μM” value is given as 42.5% and the “% Inhibition at: 100μM” value was −20.3%.
As for `CC(=O)Oc1ccc(C(=NNc2cccc([N+](=O)[O-])c2)c2ccc(OC(C)=O)cc2)cc1` [III-2, 4,4′-Diacetoxybenzophenone-3-nitrophenylhydrazone], the “% Inhibition at: 25 μM” value was found to be 26.9%, the “% Inhibition at: 50 μM” value is on record as 42.0% and the “% Inhibition at: 100μM” value was −19.8%.
